Results on 6 compounds are retold here after patent US9550796B2, “Pyrrolopyrrolone derivatives and their use as BET inhibitors” (NOVARTIS AG, priority 2013, dated 2017).

For orientation: IC50 means the point on the concentration scale where inhibition reaches its midpoint. As a reminder, the GI50 is the concentration giving 50% growth inhibition.

In one assay the target is BRD4 (Homo sapiens (Human), UniProt O60885). In words: TR-FRET in-vitro binding assay for BRD4. To be noted: 45 nM His-Brd4(44-477), acetyl-histone H4 (AcK 5, 8, 12, 16) peptide. Here is the method: (§1) TR-FRET In-Vitro Binding Assays for BRD2, BRD3, and BRD4: All assays were performed in 384-well microtiter plates. […] Liquid handling and incubation steps were done on an Innovadyne Nanodrop Express equipped with a robotic arm (Thermo CatX, Perkin Elmer/Caliper Twister II) and an incubator (Liconic STX40, Thermo Cytomat 2C450). The assay plates were prepared by addition of 50 nl per well of compound solution in 90% DMSO HummingBird nanodispenser (Zinsser Analytic). […] Reactions were incubated at 30° C. for 35 minutes. […] After 35 minutes incubation at 30° C., plates were measured in a Perkin Elmer EnVision multilabel reader. […] The stock solutions were stored at […] if not used immediately. For the test procedure the vials were defrosted and identified by a scanner whereby a working sheet was generated that guided the subsequent working steps. Compound dilutions were made in 96 well plates. This format enabled the assay of maximally […] at 8 concentrations (single points) including 4 reference compounds, if desired (known BET inhibitors from the prior art, for this and other assays of the type disclosed herein). The dilution protocol included the production of “pre-dilution plates”, “master plates” and “assay plates”. Polypropylene 96-well plates were used as pre-dilution plates. […] All dilution steps were done on a HamiltonSTAR robot. […] Identical “assay plates” were then prepared by pipetting 50 nL each of compound dilutions of the “master plates” into 384-well “assay plates” by means of a HummingBird 384-channel dispenser. These plates were used directly for the assay which was performed in a total volume of 13.55 μL.
On the technique in general: Time-resolved FRET reads energy transfer from a long-lived donor to a nearby acceptor.

Another assay deals with BRD3 (Homo sapiens (Human), UniProt Q15059). In words: TR-FRET in-vitro binding assay for BRD3. The conditions noted are these: 45 nM His-Brd3(20-477), acetyl-histone H4 (AcK 5, 8, 12, 16) peptide. Here is the method: as §1
A further assay has as its target CREBBP (Homo sapiens (Human), UniProt Q92793). Kind of assay: AlphaScreen in-vitro binding assay for CREBBP. The conditions noted are these: 324 nM His-CREBBP (1081-1197), acetyl-histone H4 (AcK 5, 8, 12) peptide. Here is the method:
AlphaScreen In-Vitro Binding Assay for CREBBP
In order to assess bromodomain selectivity, we set up a binding assay using the bromodomain encoded by the CREBBP gene. […] The assay was started by stepwise addition of 4.5 μL per well of bromo domain protein (50 mM HEPES, pH 7.5, 0.005% Tween20, 0.02% BSA, 150 mM NaCl, 324 nM His-CREBBP (1081-1197) (custom production at Viva Biotech Ltd.)) and 4.5 μL per well of peptide solution (50 mM HEPES, pH 7.5, 0.005% Tween20, 0.02% BSA, 150 mM NaCl, 120 nM acetyl-histone H4 (AcK 5, 8, 12) (Biosyntan GmbH)). Reactions were incubated at 30° C. for 35 minutes. Subsequently 4.5 μL per well detection mix (50 mM HEPES, pH 7.5, 0.005% Tween20, 0.02% BSA, 150 mM NaCl, 45 μg/ml Ni-chelate acceptor beads, 45 μg/mL streptavidin-donor beads) (Perkin Elmer)) were added. After 60 minutes incubation at room temperature, plates were measured in a Perkin Elmer EnVision multilabel reader. IC50 values were determined from percent inhibition values at different compound concentrations by non-linear regression analysis.
Test compounds were dissolved in DMSO (10 mM) and transferred into 1.4 mL flat bottom or V-shaped Matrix tubes carrying a unique 2D matrix. The stock solutions were stored at […] if not used immediately. For the test procedure the vials were defrosted and identified by a scanner whereby a working sheet was generated that guided the subsequent working steps. Compound dilutions were made in 96 well plates. This format enabled the assay of maximally […] at 8 concentrations (single points) including 4 reference compounds, if desired (known BET inhibitors from the prior art, for this and other assays of the type disclosed herein). The dilution protocol included the production of “pre-dilution plates”, “master plates” and “assay plates”.
Polypropylene 96-well plates were used as pre-dilution plates. A total of 4 pre-dilution plates were prepared including 10 test compounds each on the plate positions A1-A10, one standard compound at A11 and one DMSO control at […]. All dilution steps were done on a HamiltonSTAR robot.
30 μL of individual compound dilutions including standard compound and controls of the 4 “pre-dilution plates” were transferred into a 384-well “master plate” including the following concentrations 10000, […], 1000, 300, 100, 30, 10 and 3 μM, respectively in 90% of DMSO.
Identical “assay plates” were then prepared by pipetting 50 nL each of compound dilutions of the “master plates” into 384-well “assay plates” by means of a HummingBird 384-channel dispenser. These plates were used directly for the assay which was performed in a total volume of 13.55 μL.
(In general: In Alpha technology, singlet oxygen from a donor bead excites a nearby acceptor bead.)

Another assay deals with MV-4-11. In words: Cell growth inhibition assay (CellTiter-Glo), MV-4-11. The conditions noted are these: MV-4-11 cells, 4 days; for GI50: Homo sapiens, MV4-11, 96 h, half-maximal growth inhibition; for MV-4-11 TGI: total growth inhibition. It counts as cell-based, human. Here is the method: (§2) Cell Growth Inhibition Assay
(§3) The human leukemia cell lines MV-4-11, THP-1 and K-562 were employed to characterize the effect of BET inhibitors on cellular proliferation and viability. Cells were obtained from the American Type Culture Collection (ATCC) and cultured at 37° C. in a humidified 5% CO2 incubator in the following media: MV-4-11: DMEM high glucose (Animed #1-26F01-I), 10% FCS (Animed #2-01F26-I), 4 mM L-Glutamine (Animed #5-10K50), 1 mM Sodium Pyruvate (Animed # G03625P), 1× Penicillin-Streptomycin (Animed # F12478P); K-562: Iscove's MEM (Animed #1-28F16-I), 10% FCS (Animed #2-01F26-I), 4 mM L-Glutamine (Animed #5-10K50), 1× Penicillin-Streptomycin (Animed # F12478P); THP-1: RPMI-1640 (Animed #1-41F01-I), 10% FCS (Animed #2-01F26-I), 2 mM L-Glutamine (Animed #5-10K50), 10 mM HEPES (Animed #5-31F100), 1 mM Sodium Pyruvate (Animed # G03625P), 1× Penicillin-Streptomycin (Animed # F12478P). The AML lines MV-4-11 and THP-1 are very sensitive to BET inhibitors and show massive cell death upon BET inhibition (Zuber et al., Nature, 478 (2011), 524-8). Compound-mediated suppression of cell proliferation/viability was assessed by quantification of cellular ATP levels using the CellTiter-Glo (CTG) reagent (Promega). Briefly, cells were seeded in 20 μl fresh medium into 384-well plates, followed by addition of 5 μL medium containing compound dilutions at 5-fold their final intended concentration. Dose-response effects were assessed by 3-fold serial dilutions of the test compound, starting at 10 μM. Following incubation of the cells for 4 days at 37° C. and 5% CO2, the effect of inhibitors on cell viability was quantified following addition of 20 μl CTG and luminescence quantification (integration time: 100 ms) as per vendor manual, using a correspondingly equipped Tecan M200 multi-mode platereader (TECAN, Switzerland). For data analysis, the assay background value determined in wells containing medium, but no cells, was subtracted from all data points. To enable differentiation of cytotoxic from cytostatic compounds, the number of viable cells is assessed relative to that observed at the time of compound addition using a separate cell plate (day 0). The effect of a particular test compound concentration on cell proliferation/viability is expressed as percentage of the background- and day 0-corrected luminescence reading obtained for cells treated with vehicle only (DMSO, 0.1% final concentration), which is set as 100%, whereas that luminescence reading for wells containing medium is set as −100%. Compound concentrations leading to half-maximal (IC50) and total growth inhibition (TGI) were determined using standard four parameter curve fitting.

Another assay deals with THP-1. Kind of assay: Cell growth inhibition assay (CellTiter-Glo), THP-1. To be noted: THP-1 cells, 4 days; for GI50: Homo sapiens, 96 h, half-maximal growth inhibition; for THP-1 TGI: total growth inhibition. It counts as cell-based, human. How it is done:
as §2, §3
In general terms: Cellular ATP, detected with luciferase, serves as a proxy for viable cell number.

The test system of the next assay is K-562. In words: Cell growth inhibition assay (CellTiter-Glo), K-562. It counts as cell-based, human. To be noted: K-562 cells, 4 days; for GI50: Homo sapiens, K562, 96 h, half-maximal growth inhibition; for K-562 TGI: total growth inhibition. Here is the method:
as §2, §3

Chain of CREBBP (Q92793 1081-1197): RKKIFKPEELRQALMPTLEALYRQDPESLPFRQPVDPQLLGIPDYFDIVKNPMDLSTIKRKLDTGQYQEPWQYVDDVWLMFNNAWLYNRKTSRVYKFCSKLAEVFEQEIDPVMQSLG
Chain of BRD3 (Q15059 20-477): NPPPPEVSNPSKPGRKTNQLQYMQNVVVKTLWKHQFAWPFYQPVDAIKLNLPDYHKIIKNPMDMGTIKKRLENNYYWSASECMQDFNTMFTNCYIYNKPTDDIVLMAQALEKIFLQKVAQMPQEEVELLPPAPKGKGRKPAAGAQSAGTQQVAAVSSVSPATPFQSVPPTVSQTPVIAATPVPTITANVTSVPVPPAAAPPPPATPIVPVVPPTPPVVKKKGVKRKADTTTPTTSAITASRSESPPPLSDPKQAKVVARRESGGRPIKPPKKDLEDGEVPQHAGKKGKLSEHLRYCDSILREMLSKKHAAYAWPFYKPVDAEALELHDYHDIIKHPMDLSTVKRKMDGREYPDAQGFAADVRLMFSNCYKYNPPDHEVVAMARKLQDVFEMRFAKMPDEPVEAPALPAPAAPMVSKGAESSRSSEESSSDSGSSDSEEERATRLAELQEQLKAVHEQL

For `CC(=O)Nc1cn(C)c2c1C(=O)N(c1cc(C)c3nnc(C(F)F)n3c1)C2c1ccc(Cl)cc1` (stereo not drawn) [Example 133, N-(6-(4-chlorophenyl)-5-(3-(difluoromethyl)-8-methyl-[1,2,4]triazolo[4,3-a]pyridin-6-yl)-1-methyl-4-oxo-1,4,5,6-tetrahydropyrrolo[3,4-b]pyrrol-3-yl)acetamide], the IC50 on BRD4 is 29 nM; on BRD3, 32 nM; on CREBBP, 13900 nM. For the same compound, the 50% growth inhibitory concentration (GI50) in the assay with MV-4-11 amounted to 24.6 nM; with THP-1, 29.9 nM; with K-562 it was 92.7 nM. Further, in the assay on MV-4-11, the “MV-4-11 TGI” value amounted to 49.7 nM. Moreover, the “THP-1 TGI” value with THP-1 was found to be 74.25 nM. The “K-562 TGI” value in the assay on K-562 is more than 10000 nM.

Regarding `CNC(=O)c1cn(C)c2c1C(=O)N(c1cc(C)c3nnc(C(F)F)n3c1)C2c1ccc(Cl)cc1` (stereo not drawn) [Example 132, 6-(4-chlorophenyl)-5-(3-(difluoromethyl)-8-methyl-[1,2,4]triazolo[4,3-a]pyridin-6-yl)-N,1-dimethyl-4-oxo-1,4,5,6-tetrahydropyrrolo[3,4-b]pyrrole-3-carboxamide], the results for the IC50 on BRD4, on BRD3 and at CREBBP were 16 nM, 23 nM and 14100 nM, respectively. The 50% growth inhibitory concentration (GI50) amounted to 9.57 nM with MV-4-11, 10.1 nM in the assay on THP-1 and 58.6 nM with K-562. Also, in the assay on MV-4-11, the “MV-4-11 TGI” value stood at 23.15 nM. Moreover, in the assay with THP-1, the “THP-1 TGI” value was 26 nM. Besides, the “K-562 TGI” value in the assay on K-562 is more than 10000 nM.

Consider `CCOC(=O)n1cc(C2CC2)c2c1C(c1ccc(Cl)cc1)N(c1cc(C)c3nnc(C)n3c1)C2=O` (stereo not drawn) [Example 125, Ethyl 6-(4-chlorophenyl)-3-cyclopropyl-5-(3,8-dimethyl-[1,2,4]triazolo[4,3-a]pyridin-6-yl)-4-oxo-5,6-dihydropyrrolo[3,4-b]pyrrole-1(4H)-carboxylate], for which the half-inhibitory concentration (IC50) at BRD4 turned out to be 15 nM; at BRD3, 15 nM; on CREBBP, 13700 nM. In addition, the GI50 with MV-4-11 turned out to be 12.1 nM; with THP-1 it was 15 nM; with K-562, 115 nM. Besides, in the assay with MV-4-11, the “MV-4-11 TGI” value came out at 19.25 nM. Further, in the assay on THP-1, the “THP-1 TGI” value is 28.4 nM. Besides, the “K-562 TGI” value in the assay on K-562 was more than 10000 nM.

For `CCOC(=O)n1c(C2=CCOCC2)c(C)c2c1C(c1ccc(Cl)cc1)N(c1cc(C)c3nnc(C)n3c1)C2=O` (stereo not drawn) [Example 123, Ethyl 6-(4-chlorophenyl)-2-(3,6-dihydro-2H-pyran-4-yl)-5-(3,8-dimethyl-[1,2,4]triazolo[4,3-a]pyridin-6-yl)-3-methyl-4-oxo-5,6-dihydropyrrolo[3,4-b]pyrrole-1(4H)-carboxylate], the IC50 at BRD4 was less than 11 nM; on BRD3 it was 11 nM; at CREBBP, 2800 nM. The values for the GI50 in the assay with MV-4-11, with THP-1 and in the assay with K-562 were 5.14 nM, 6.03 nM and 37.5 nM, respectively. The “MV-4-11 TGI” value in the assay with MV-4-11 was 9.695 nM. For the same compound, the “THP-1 TGI” value in the assay on THP-1 came out at 13.5 nM. In addition, the “K-562 TGI” value in the assay with K-562 is more than 10000 nM.

On to `CC(=O)Nc1cn(C)c2c1C(=O)N(c1cc(C)c3nnc(C(F)F)n3n1)C2c1ccc(Cl)cc1` (stereo not drawn) [Example 109, N-(6-(4-chlorophenyl)-5-(3-(difluoromethyl)-8-methyl-[1,2,4]triazolo[4,3-b]pyridazin-6-yl)-1-methyl-4-oxo-1,4,5,6-tetrahydropyrrolo[3,4-b]pyrrol-3-yl)acetamide], for which the concentration for half-maximal inhibition (IC50) at BRD4 is 23 nM; at BRD3, 20 nM; at CREBBP it was more than 37000 nM. Further, the GI50 in the assay with MV-4-11 came to 19.4 nM; in the assay with THP-1, 17.3 nM; with K-562, 114 nM. The “MV-4-11 TGI” value in the assay with MV-4-11 is 40.75 nM. The “THP-1 TGI” value with THP-1 is 38.6 nM. Besides, the “K-562 TGI” value in the assay on K-562 was more than 10000 nM.

As to `Cc1cc(N2C(=O)c3c(NC(=O)CCN(C)C)cn(C)c3C2c2ccc(Cl)cc2)nn2c(C(F)F)nnc12` (stereo not drawn) [Example 110, N-(6-(4-chlorophenyl)-5-(3-(difluoromethyl)-8-methyl-[1,2,4]triazolo[4,3-b]pyridazin-6-yl)-1-methyl-4-oxo-1,4,5,6-tetrahydropyrrolo[3,4-b]pyrrol-3-yl)-3-(dimethylamino)propanamide], the figures for the half-inhibitory concentration (IC50) on BRD4, on BRD3 and at CREBBP were 30 nM, 37 nM and more than 37000 nM, respectively. The figures for the GI50 in the assay with MV-4-11, with THP-1 and with K-562 were 10 nM, 257 nM and 211 nM, respectively. Besides, in the assay on MV-4-11, the “MV-4-11 TGI” value is 25.5 nM. The “THP-1 TGI” value in the assay on THP-1 is 293.5 nM. Moreover, the “K-562 TGI” value in the assay on K-562 came to 5640 nM.
